# Results: PubChem BioAssay AID434967 (Sanford-Burnham Center for Chemical Genomics, 2010)
# Test: blockers of HIV fusion peptide binding, cell-free – biochemical, fluorescence quenching, SAR follow-up (AID 434967)
# Conditions: 30 min
row,SMILES,IC50
1,O=C(O)c1ccccc1N=Nc1c(O)[nH]c2ccc([N+](=O)[O-])cc12,13.3 µM
2,CCOC(=O)c1sc(N2C(=O)C(O)=C(C(=O)c3ccc(C)o3)C2c2cccc([N+](=O)[O-])c2)nc1C (stereo not given),10.5 µM
3,COc1ccc(C(=O)Oc2ccc(C=NNc3ccc(Cl)c(C(=O)O)c3)cc2OC)cc1,5.16 µM
4,CC(C)(C)c1cc(-c2csc(Nc3ccccc3)[n+]2Cc2ccc(C(=O)O)cc2)cc(C(C)(C)C)c1O,27.3 µM
5,O=C(O)c1cc(NN=Cc2ccc(-c3ccccc3)cc2)ccc1Cl,14.8 µM
6,COc1cc(C=NNc2ccc(Cl)c(C(=O)O)c2)ccc1OC(=O)c1ccccc1F,25.9 µM
7,N#C/C(=C\c1ccc(O)c([N+](=O)[O-])c1)c1nc2ccccc2s1,6.25 µM
8,Cc1c2c(=O)n(-c3nc4ccccc4s3)nc-2cc(O)n1Cc1ccccc1,10.1 µM
9,COc1cc(C=NNc2ccc(Cl)c(C(=O)O)c2)ccc1OC(=O)c1ccc(F)cc1,8.03 µM
10,O=C(N/N=C/c1c(O)n(C2CCCCC2)c(=S)[nH]c1=O)c1ccccc1O,9 µM
